Assay results from US10842762B2, “Method of treating cardiovascular events using colchicine concurrently with an antiplatelet agent” (Murray and Poole Enterprises, LTD., priority 2012, dated 2020).

Tests used:
[1] = tested on: patients with a first episode of recurrent pericarditis; details: at 18 months; conventional treatment with aspirin plus colchicine (1.0-2.0 mg first day, then 0.5-1.0 mg/d for 6 months); vs 50.6% with conventional treatment; cited from earlier work
[2] = tested on: patients with objectively diagnosed and clinically stable coronary disease; test: LoDoCo Trial: prospective randomized observer blinded end-point trial of colchicine 0.5 mg/day added to standard secondary prevention therapies
Method: To assess the therapeutic effects of an immediate release formulation in patients with cardiovascular disease, a prospective randomized observer blinded end-point trial was conducted to determine whether adding 0.5 mg/day of colchicine to standard secondary prevention therapies including aspirin and high dose statins reduces the risk of cardiovascular events in patients with objectively diagnosed and clinically stable coronary disease.
Eligible consenting patients with established coronary disease presenting for routine clinical review were randomized to receive colchicine 0.5 mg/day or no colchicine without any other change to their medical therapy. All outcomes were evaluated by an experienced adjudicator blinded to the treatment allocation.
It was planned to recruit a study population that would include 500 patients planned (532 patients randomized as 32 dropped out early), 250 randomized to the control group and 250 patients randomized to treatment who were tolerant of colchicine for at least 4 weeks after the date of their randomization. Patients were eligible for inclusion if they met each of the following criteria: 1) angiographically proven coronary disease; 2) aged 35 to 85 years; 3) clinically stable for at least 6 months, 4) no major competing co-morbidities or contra-indication to colchicine therapy, 5) considered to be compliant with therapy and attending routine cardiology follow up appointments, and 6) willing to be consented and randomized into the study. Patients with a history of bypass surgery were only eligible if they had undergone bypass surgery more than 10 years before, or had angiographic evidence of graft failure or had undergone stenting since their bypass surgery. All patients signed informed consent before randomization.
The randomization sequence was computer generated, kept concealed from the investigators at all times and was managed by a research assistant who had no involvement in the evaluation or management of study patients. […] Despite electing to use the lowest dose of colchicine available, it was anticipated that a number of patients would withdraw from therapy early after randomization due to gastrointestinal side effects. In order to ensure that the requisite number of patients in the treatment arm were actually tolerant of treatment, the protocol allowed for the research assistant to assign a newly recruited patient to treatment if a patient discontinued colchicine due to side effects in the first month. Patients who were intolerant to therapy remained in the study, and were followed in the usual manner and included in the primary intention to treat analysis.
The drug was dispensed by their usual chemist, and if requested, patients were reimbursed for the cost of these scripts. All other treatments were continued as usual.
Patient compliance with treatment and outcome data were collected at routine follow up visits and at the time of any unplanned hospital admission. An acute coronary syndrome (ACS) was defined as either (a) Acute Myocardial Infarction (AMI), as evidenced by acute ischemic chest pain associated with a rise in serum troponin above the upper limit of normal or (b) Unstable Angina (UA), as evidenced by a recent acceleration of the patient's angina unassociated with a rise in serum troponin but associated with angiographic evidence of a change in the patient's coronary anatomy. […] The ACS was characterized as being stent-related if there was evidence of significant in-stent stenosis or acute stent thrombosis. Out of Hospital Cardiac Arrest was defined as either a sudden death as evidenced on the patient's death certificate, or a non-fatal out of hospital cardiac arrest, defined as a recovery from sudden collapse associated with documented asystole, ventricular tachycardia or ventricular fibrillation.

[3] = No treatment (no antithrombotic), n=1
[4] = Treated with Aspirin + clopidogrel + warfarin, n=2
[5] = Treated with Aspirin + clopidogrel, n=33
[6] = Treated with Aspirin + warfarin, n=6
[7] = Treated with Aspirin alone, n=173
[8] = Treated with Clopidogrel alone or warfarin alone (no aspirin), n=28
[9] = Treated with Clopidogrel alone, n=12
[10] = Treated with Warfarin alone, n=16
[11] = Treated with at least aspirin, n=214
[12] = Treated with at least one antiplatelet drug (aspirin, clopidogrel or combinations), n=226
[13] = Treated with at least one antithrombotic drug (aspirin, clopidogrel or warfarin or combinations), n=242
[14] = of 282 randomized to treatment, colchicine 0.5 mg/day

COc1cc2c(c(OC)c1OC)-c1ccc(OC)c(=O)cc1[C@@H](NC(C)=O)CC2 [colchicine, N[5,6,7,9-tetrahydro-1,2,3,10-tetratmethoxy 9-oxobenzo[a]heptalen-7-yl],(S)-acetamide]
recurrence rate (actuarial rate) [1]: 24.0% | stent related ACS with evidence of acute stent thrombosis, patients ([2]; 2 in each group): 2 | stent related ACS with evidence of significant in-stent stenosis, patients ([2]; 2 in each group): 2 | Primary Outcome, number of patients [2, 3]: 0 | Primary Outcome, percent [2, 3]: (0%) | Primary Outcome, number of patients ([2]; Total, colchicine group n=243): 11 | Primary Outcome, percent ([2]; Total, colchicine group n=243): (4.5%) | Primary Outcome, number of patients [2, 4]: 0 | Primary Outcome, percent [2, 4]: (0%) | Primary Outcome, number of patients [2, 5]: 3 | Primary Outcome, percent [2, 5]: (9%) | Primary Outcome, number of patients [2, 6]: 0 | Primary Outcome, percent [2, 6]: (0%) | Primary Outcome, number of patients [2, 7]: 7 | Primary Outcome, percent [2, 7]: (4%) | Primary Outcome, number of patients [2, 8]: 1 | Primary Outcome, percent [2, 8]: (3.45%) | Primary Outcome, number of patients [2, 9]: 1 | Primary Outcome, percent [2, 9]: (8.3%) | Primary Outcome, number of patients [2, 10]: 0 | Primary Outcome, percent [2, 10]: (0%) | Primary Outcome, number of patients [2, 11]: 10 | Primary Outcome, percent [2, 11]: (4.67%) | Primary Outcome, number of patients [2, 12]: 11 | Primary Outcome, percent [2, 12]: (4.9%) | Primary Outcome, number of patients [2, 13]: 11 | Primary Outcome, percent [2, 13]: 4.5% | Primary Outcome, percent ([2]; Treated with at least one antithrombotic drug (aspirin, clopidogrel or warfarin or combinations), n=242, listed as Colchicine): (4.5%) | patients who died of non-cardiac causes ([2]; colchicine group, all deaths): 4 patients | patients who died ([2]; colchicine group, control group ten): 4 patients | AMI unrelated to stent disease, hazard ratio ([2]; colchicine vs control, 95% CI 0.08-0.76, p=0.014): 0.25 | UA unrelated to stent disease, hazard ratio ([2]; colchicine vs control, 95% CI 0.10-0.75, p=0.011): 0.27 | ACS unrelated to stent disease, hazard ratio ([2]; colchicine vs control, 95% CI 0.12-0.55, p<0.001): 0.26 | ACS, hazard ratio ([2]; colchicine vs control, 95% CI 0.18-0.63, p<0.001): 0.33 | primary outcome, number needed to treat ([2]; intention-to-treat, colchicine vs control): 11 | primary outcome, hazard ratio ([2]; intention-to-treat, colchicine vs control, 95% CI 0.18-0.59, p<0.001): 0.33 | primary outcome, percent of patients ([2]; intention-to-treat, colchicine 0.5 mg/day, median follow up 36 months, control 16%): 5.3% | primary outcome (ACS, out of hospital cardiac arrest or non-cardio-embolic ischemic stroke), patients with event / patients assigned ([2]; intention-to-treat, colchicine 0.5 mg/day, median follow up 36 months, control 40/250): 15/282 | ACS unrelated to stent disease associated with an AMI, percent ([2]; intention-to-treat, control 5.6%): 1.4% | ACS unrelated to stent disease, UA, percent ([2]; intention-to-treat, control 6.4%): 1.8% | ACS unrelated to stent disease, percent ([2]; intention-to-treat, control 12%): 3.2% | patients presenting with an ACS, percent ([2]; intention-to-treat, control 13.4%): 4.6% | ACS unrelated to stent disease associated with an AMI, patients / patients assigned ([2]; intention-to-treat, control 14/250): 4/282 | ACS unrelated to stent disease, UA, patients / patients assigned ([2]; intention-to-treat, control 16/250): 5/282 | ACS unrelated to stent disease, patients / patients assigned ([2]; intention-to-treat, control 30/250): 9/282 | patients presenting with an ACS / patients assigned ([2]; intention-to-treat, control 34/250): 13/282 | early intolerance due to gastrointestinal side effects, patients [2, 14]: 32 | early intolerance due to gastrointestinal side effects, percent [2, 14]: 11% | events (primary outcome), hazard ratio ([2]; on-treatment analysis vs control, 95% CI 0.15-0.56, p<0.001): 0.29 | events (primary outcome), percent ([2]; on-treatment analysis: compliant and tolerant beyond the first month, control 16%): 4.5% | events (primary outcome), patients / patients compliant and tolerant ([2]; on-treatment analysis: compliant and tolerant to therapy beyond the first month, control 40/250): 11/243 | out of hospital cardiac arrest and non-cardio-embolic ischemic stroke ([2]; treatment group vs control, infrequent events): also reduced
